Reference: US8247211B2, “Glycopeptide antibiotics” (American Cyanamid Company, priority 2001, dated 2012)
In brackets after ≈: the same amount, converted by molar mass. Like-named read-outs stand apart in the source and are kept apart here. Numbered stars: 1 amine (or outer) side, 2 acyl side, 3 side chain; on linkers, the order of the positions; unused ones are H or OH. Square brackets hold non-standard residues; d marks the D form. Peptide text beside a SMILES is read from it. ξ: configuration not given here. X1 = N=C1NCC(C(O)C(N[*:1])C(=O)[*:2])N1C1OC(CO)C(O)C(O)C1O; ξEnduracididine(βξ-OH,4'ξ) = N=C1NCC(C(O)C(N)C(=O)O)N1; Cha = N[CH](CC1CCCCC1)C(=O)O

How the values were obtained:
[1] = test system: Enterococcus sp.; assay: In vitro antibacterial evaluation: minimum inhibitory concentration (MIC), broth dilution method; assay type: cell-based
Summary of the method: (§1)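 MIC by broth dilution in Mueller-Hinton II medium following NCCLS M7-A2. Inoculum was 5×10^5 CFU/mL and antibiotic was tested over 64-0.06 μg/mL. Gram-positive panel included clinical isolates resistant to methicillin, penicillin and/or vancomycin.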

[2] = test system: Streptococcus sp.; assay: as above; assay type: cell-based; conditions: broth dilution, 18 hours at 35° C.
Summary of the method: as §1

[3] = test system: Staphylococcus sp.; assay: as above; assay type: cell-based; conditions: 18 hours at 35° C.
Summary of the method: as §1

[4] = Anatomic pathology (heart and kidney histopathology) in mice; assay type: in vivo, CD-1 mice; conditions: 20 mg/kg intravenously daily for 9 days, microscopic histopathology on day 10
Summary of the method: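 Histopathology on H&E-stained, paraffin-embedded sections, subjectively scored (slight, mild, moderate, marked, severe) relative to untreated controls. Dosing: glycopeptide antibiotics 20 mg/kg intravenously once daily ×9 days in 20-day-old CD-1 mice, n=5 per group including vehicle.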

[5] = test system: Staphylococcus aureus-SMITH (GC 4543); assay: Acute lethal infection in mice (ED50); assay type: in vivo; conditions: female CD-1 mice, intraperitoneal challenge, intravenous dose 30 min. after infection, 7 day survival ratios
Summary of the method: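 ED50 derived from pooled 7-day survival in three separate experiments, five mice per dose level. Single intravenous dose 30 min after intraperitoneal infection of female CD-1 mice with enough bacteria to kill untreated animals in 24-48 h.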

[6] = test system: Escherichia coli; assay: In vitro antibacterial evaluation: minimum inhibitory concentration (MIC), broth dilution method; assay type: cell-based; conditions: broth dilution, 18 hours at 35° C.
[7] = test system: Escherichia coli; assay: as above; assay type: cell-based
[8] = test system: Escherichia coli; assay: as above; assay type: cell-based; remark: listed apart in the source
Summary of the method: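 Susceptibility determined by NCCLS-recommended broth dilution (M7-A2), Muller-Hinton II […]. Concentration span 64-0.06 μg/mL, inoculum 5×10^5 CFU/mL. Isolates include strains resistant to methicillin, penicillin and/or vancomycin.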

[9] = broth dilution, 18 hours at 35° C.

N=C1NCC(C(O)C2NC(=O)C(CC3CCCCC3)NC(=O)C(CC3CCCCC3)NC(=O)CNC(=O)C(CO)NC(=O)C(C(O)C3CNC(=N)N3C3OC(CO)C(O)C(O)C3O)NC2=O)N1 (stereo not drawn) [Example 52, Cyclo[3-cyclohexylalanyl-3-cyclohexylalanyl-3-(2-iminoimidazolidin-4-yl)seryl-3-(3-hexopyranosyl-2-iminoimidazolidin-4-yl)serylserylglycyl]] (cyclo(G[Cha][Cha][ξEnduracididine(βξ-OH,4'ξ)][X1]S); configuration not given here)
MIC Enterococcus avium (GC 4558) ([1]; Enterococcus avium (GC 4558), broth dilution, 18 hours at 35° C.): 32 µg/mL (≈ 33.6 µM) | MIC Enterococcus faecalis (ATCC 29212) ([1]; Enterococcus faecalis (ATCC 29212), broth dilution, 18 hours at 35° C.): 64 µg/mL (≈ 67.2 µM) | MIC Enterococcus faecalis (GC 2242) ([1]; Enterococcus faecalis (GC 2242), broth dilution, 18 hours at 35° C.): 32 µg/mL (≈ 33.6 µM) | MIC Enterococcus faecalis (GC 2691) ([1]; Enterococcus faecalis (GC 2691), broth dilution, 18 hours at 35° C.): 32 µg/mL (≈ 33.6 µM) | MIC Enterococcus faecalis (GC 3059) ([1]; Enterococcus faecalis (GC 3059), broth dilution, 18 hours at 35° C.): 32 µg/mL (≈ 33.6 µM) | MIC Enterococcus faecalis (GC 4552) ([1]; Enterococcus faecalis (GC 4552), broth dilution, 18 hours at 35° C.): 32 µg/mL (≈ 33.6 µM) | MIC Enterococcus faecalis (GC 4553) ([1]; Enterococcus faecalis (GC 4553), broth dilution, 18 hours at 35° C.): 16 µg/mL (≈ 16.8 µM) | MIC Enterococcus faecalis (GC 4554) ([1]; Enterococcus faecalis (GC 4554), broth dilution, 18 hours at 35° C.): 64 µg/mL (≈ 67.2 µM) | MIC Enterococcus faecalis (GC 6189) ([1]; Enterococcus faecalis (GC 6189), broth dilution, 18 hours at 35° C.): 32 µg/mL (≈ 33.6 µM) | MIC Enterococcus faecium (GC 2243) ([1]; Enterococcus faecium (GC 2243), broth dilution, 18 hours at 35° C.): 16 µg/mL (≈ 16.8 µM) | MIC Enterococcus faecium (GC 4556) ([1]; Enterococcus faecium (GC 4556), broth dilution, 18 hours at 35° C.): 32 µg/mL (≈ 33.6 µM) | MIC Enterococcus faecium (GC 4557) ([1]; Enterococcus faecium (GC 4557), broth dilution, 18 hours at 35° C.): 8 µg/mL (≈ 8.39 µM) | MIC Enterococcus avium (GC 4558) [1, 9]: 32 µg/mL (≈ 33.6 µM) | MIC Enterococcus faecalis (ATCC 29212) [1, 9]: 64 µg/mL (≈ 67.2 µM) | MIC Enterococcus faecalis (GC 2242) [1, 9]: 32 µg/mL (≈ 33.6 µM) | MIC Enterococcus faecalis (GC 2691) [1, 9]: 32 µg/mL (≈ 33.6 µM) | MIC Enterococcus faecalis (GC 3059) [1, 9]: 32 µg/mL (≈ 33.6 µM) | MIC Enterococcus faecalis (GC 4552) [1, 9]: 32 µg/mL (≈ 33.6 µM) | MIC Enterococcus faecalis (GC 4553) [1, 9]: 16 µg/mL (≈ 16.8 µM) | MIC Enterococcus faecalis (GC 4554) [1, 9]: 64 µg/mL (≈ 67.2 µM) | MIC Enterococcus faecalis (GC 6189) [1, 9]: 32 µg/mL (≈ 33.6 µM) | MIC Enterococcus faecium (GC 2243) [1, 9]: 16 µg/mL (≈ 16.8 µM) | MIC Enterococcus faecium (GC 4556) [1, 9]: 32 µg/mL (≈ 33.6 µM) | MIC Enterococcus faecium (GC 4557) [1, 9]: 8 µg/mL (≈ 8.39 µM) | MIC Streptococcus agalactiae (GC 4564) ([2]; Streptococcus agalactiae (GC 4564)): 8 µg/mL (≈ 8.39 µM) | MIC Streptococcus pneumoniae (ATCC 6301) ([2]; Streptococcus pneumoniae (ATCC 6301)): 8 µg/mL (≈ 8.39 µM) | MIC Streptococcus pneumoniae (GC 1894) ([2]; Streptococcus pneumoniae (GC 1894)): 8 µg/mL (≈ 8.39 µM) | MIC Streptococcus pneumoniae (GC 4565) ([2]; Streptococcus pneumoniae (GC 4565)): 16 µg/mL (≈ 16.8 µM) | MIC Streptococcus pyogenes (GC 4563) ([2]; Streptococcus pyogenes (GC 4563)): 8 µg/mL (≈ 8.39 µM) | MIC Streptococcus agalactiae (GC 4564) [2]: 8 µg/mL (≈ 8.39 µM) | MIC Streptococcus pneumoniae (ATCC 6301) [2]: 8 µg/mL (≈ 8.39 µM) | MIC Streptococcus pneumoniae (GC 1894) [2]: 8 µg/mL (≈ 8.39 µM) | MIC Streptococcus pneumoniae (GC 4565) [2]: 16 µg/mL (≈ 16.8 µM) | MIC Streptococcus pyogenes (GC 4563) [2]: 8 µg/mL (≈ 8.39 µM) | MIC Coagulase Negative Staphylococcus (GC 4547) ([3]; broth dilution): 8 µg/mL (≈ 8.39 µM) | MIC Coagulase Negative Staphylococcus (GC 4548) ([3]; broth dilution): 8 µg/mL (≈ 8.39 µM) | MIC Coagulase Negative Staphylococcus (GC 4549) ([3]; broth dilution): 4 µg/mL (≈ 4.2 µM) | MIC Coagulase Negative Staphylococcus (GC 4551) ([3]; broth dilution): 8 µg/mL (≈ 8.39 µM) | MIC Staphylococcus aureus SMITH (GC 4543) ([3]; broth dilution): 16 µg/mL (≈ 16.8 µM) | MIC Staphylococcus haemolyticus (GC 4546) ([3]; broth dilution): 4 µg/mL (≈ 4.2 µM) | MIC Staphylococcus aureus-SMITH (GC 4543) ([3]; strain SMITH GC 4543, broth dilution): 16 µg/mL (≈ 16.8 µM) | Anatomical Pathology (Day 10), Heart [4]: 0 | Anatomical Pathology (Day 10), Kidney [4]: +++ | median effective dose (ED50), Staphylococcus aureus-SMITH (GC 4543) [5]: >4 | MIC Escherichia coli (ATCC 25922) [6]: 64 µg/mL (≈ 67.2 µM) | MIC Escherichia coli (GC 4559) [6]: 64 µg/mL (≈ 67.2 µM) | MIC Escherichia coli (GC 4560) [6]: 16 µg/mL (≈ 16.8 µM)

CC(C)CC(=O)OC1C(O)C(CO)OC(OC2C(CO)OC(Oc3ccc(CC4NC(=O)C(C(C)c5cccs5)NC(=O)CNC(=O)C(CO)NC(=O)C(C(O)C5CNC(=N)N5C5OC(CO)C(O)C(O)C5O)NC(=O)C(C(O)C5CNC(=N)N5)NC4=O)cc3)C(O)C2O)C1O (centres unmarked) [Example 265b]
MIC Escherichia coli (ATCC 25922) [7]: >64 µg/mL | MIC Enterococcus avium (GC 4558) ([1]; Enterococcus avium (GC 4558)): 64 µg/mL (≈ 46.2 µM) | MIC Enterococcus faecalis (ATCC 29212) ([1]; Enterococcus faecalis (ATCC 29212)): 64 µg/mL (≈ 46.2 µM) | MIC Enterococcus faecalis (GC 4553) ([1]; Enterococcus faecalis (GC 4553)): 64 µg/mL (≈ 46.2 µM) | MIC Enterococcus faecalis (GC 4554) ([1]; Enterococcus faecalis (GC 4554)): >64 µg/mL | MIC Enterococcus faecium (GC 2243) ([1]; Enterococcus faecium (GC 2243)): 64 µg/mL (≈ 46.2 µM) | MIC Enterococcus faecium (GC 4556) ([1]; Enterococcus faecium (GC 4556)): 64 µg/mL (≈ 46.2 µM) | MIC Enterococcus faecium (GC 4557) ([1]; Enterococcus faecium (GC 4557)): 8 µg/mL (≈ 5.77 µM) | MIC Enterococcus faecalis (GC 2242) ([1]; broth dilution, 18 hours at 35° C., strain GC 2242): 4 µg/mL (≈ 2.89 µM) | MIC Enterococcus faecalis (GC 2691) ([1]; broth dilution, 18 hours at 35° C., strain GC 2691): 64 µg/mL (≈ 46.2 µM) | MIC Escherichia coli (GC 4559) ([8]; Escherichia coli (GC 4559)): 64 µg/mL (≈ 46.2 µM) | MIC Escherichia coli (GC 4560) ([8]; Escherichia coli (GC 4560)): 4 µg/mL (≈ 2.89 µM) | MIC Coagulase Negative Staphylococcus (GC 4547) ([3]; Coagulase Negative Staphylococcus (GC 4547)): 8 µg/mL (≈ 5.77 µM) | MIC Coagulase Negative Staphylococcus (GC 4547) ([3]; Coagulase Negative Staphylococcus (GC 4547), broth dilution): 8 µg/mL (≈ 5.77 µM) | MIC Coagulase Negative Staphylococcus (GC 4548) ([3]; Coagulase Negative Staphylococcus (GC 4548)): 4 µg/mL (≈ 2.89 µM) | MIC Coagulase Negative Staphylococcus (GC 4548) ([3]; Coagulase Negative Staphylococcus (GC 4548), broth dilution): 4 µg/mL (≈ 2.89 µM) | MIC Coagulase Negative Staphylococcus (GC 4549) ([3]; Coagulase Negative Staphylococcus (GC 4549)): 4 µg/mL (≈ 2.89 µM) | MIC Coagulase Negative Staphylococcus (GC 4549) ([3]; Coagulase Negative Staphylococcus (GC 4549), broth dilution): 4 µg/mL (≈ 2.89 µM) | MIC Coagulase Negative Staphylococcus (GC 4551) ([3]; Coagulase Negative Staphylococcus (GC 4551)): 8 µg/mL (≈ 5.77 µM) | MIC Coagulase Negative Staphylococcus (GC 4551) ([3]; Coagulase Negative Staphylococcus (GC 4551), broth dilution): 8 µg/mL (≈ 5.77 µM) | MIC Staphylococcus aureus (ATCC 29213) [3]: 16 µg/mL (≈ 11.5 µM) | MIC Staphylococcus aureus (ATCC 29213) ([3]; broth dilution): 16 µg/mL (≈ 11.5 µM) | MIC Staphylococcus aureus (GC 1131) [3]: 32 µg/mL (≈ 23.1 µM) | MIC Staphylococcus aureus (GC 1131) ([3]; broth dilution): 32 µg/mL (≈ 23.1 µM) | MIC Staphylococcus aureus (GC 4541) [3]: 8 µg/mL (≈ 5.77 µM) | MIC Staphylococcus aureus (GC 4541) ([3]; broth dilution): 8 µg/mL (≈ 5.77 µM) | MIC Staphylococcus aureus (GC 4542) [3]: 8 µg/mL (≈ 5.77 µM) | MIC Staphylococcus aureus (GC 4542) ([3]; broth dilution): 8 µg/mL (≈ 5.77 µM) | MIC Staphylococcus aureus (GC 4544) [3]: 8 µg/mL (≈ 5.77 µM) | MIC Staphylococcus aureus (GC 4544) ([3]; broth dilution): 8 µg/mL (≈ 5.77 µM) | MIC Staphylococcus aureus (GC 4545) [3]: 8 µg/mL (≈ 5.77 µM) | MIC Staphylococcus aureus (GC 4545) ([3]; broth dilution): 8 µg/mL (≈ 5.77 µM) | MIC Staphylococcus aureus-SMITH (GC 4543) ([3]; Staphylococcus aureus-SMITH (GC 4543)): 8 µg/mL (≈ 5.77 µM) | MIC Staphylococcus aureus-SMITH (GC 4543) ([3]; Staphylococcus aureus-SMITH (GC 4543), broth dilution): 8 µg/mL (≈ 5.77 µM) | MIC Staphylococcus haemolyticus (GC 4546) ([3]; Staphylococcus haemolyticus (GC 4546)): 8 µg/mL (≈ 5.77 µM) | MIC Staphylococcus haemolyticus (GC 4546) ([3]; Staphylococcus haemolyticus (GC 4546), broth dilution): 8 µg/mL (≈ 5.77 µM)
